In ChEMBL document CHEMBL1134993, “Synthesis of [difluoro-(3-alkenylphenyl)-methyl]-phosphonic acids on non-crosslinked polystyrene and their evaluation as inhibitors of PTP1B” (Bioorg Med Chem Lett, 2002):
Active and inactive are the calls of the source. The calls are words filed in the database; no cut-off is given here.

Molecular target: T1, Tyrosine-protein phosphatase non-receptor type 1 (Homo sapiens, UniProt P18031)
T1 sequence (P18031 whole entry): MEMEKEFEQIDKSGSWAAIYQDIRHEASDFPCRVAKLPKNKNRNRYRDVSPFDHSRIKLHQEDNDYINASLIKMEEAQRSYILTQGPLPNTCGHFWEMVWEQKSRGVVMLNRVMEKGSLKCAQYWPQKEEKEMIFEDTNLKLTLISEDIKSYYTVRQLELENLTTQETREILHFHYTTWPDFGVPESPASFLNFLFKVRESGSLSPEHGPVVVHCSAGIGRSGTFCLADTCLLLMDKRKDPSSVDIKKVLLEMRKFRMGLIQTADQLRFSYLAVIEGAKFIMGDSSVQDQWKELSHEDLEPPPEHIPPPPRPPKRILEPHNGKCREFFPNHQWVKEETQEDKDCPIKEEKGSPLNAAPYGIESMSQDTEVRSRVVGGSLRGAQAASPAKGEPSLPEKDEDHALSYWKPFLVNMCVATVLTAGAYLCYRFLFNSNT
Assay: Inhibitory concentration against protein-tyrosine phosphatase 1B (PTB 1B)

SMILES	IC50
O=P(O)(O)C(F)(F)c1cccc(-c2ccccc2)c1	0.015 mM

Molecular target: T2, Tyrosine-protein phosphatase non-receptor type 1 (Homo sapiens) (UniProt P18031)
T2 sequence (whole entry): T1 sequence (P18031 whole entry)
Assay: Compound was evaluated for its percent Inhibition of protein-tyrosine phosphatase 1B (PTP1B) at the concentration of 50 uM

SMILES	inhibition
N#C/C=C\c1cccc(C(F)(F)P(=O)(O)O)c1	45%
CCOC(=O)/C=C\c1cccc(C(F)(F)P(=O)(O)O)c1	53%
C=CCOC(=O)/C=C\c1cccc(C(F)(F)P(=O)(O)O)c1	84%
O=C(/C=C\c1cccc(C(F)(F)P(=O)(O)O)c1)OCc1ccccc1	71%

The remaining lines, values ahead:

inhibition	SMILES
60%	O=P(O)(O)C(F)(F)c1cccc(/C=C\c2cccc3ccccc23)c1
23%	COC(=O)/C=C\c1cccc(C(F)(F)P(=O)(O)O)c1
70%	O=P(O)(O)C(F)(F)c1cccc(/C=C\C=C\c2ccccc2)c1

Molecular target: T2, Tyrosine-protein phosphatase non-receptor type 1 (Homo sapiens)
Assay: Compound was evaluated for its percent Inhibition of protein-tyrosine phosphatase 1B (PTP1B) at the concentration of 50 uM; […]

inhibition	SMILES
inactive	CC/C=C\c1cccc(C(F)(F)P(=O)(O)O)c1
inactive	O=P(O)(O)C(F)(F)c1cccc(/C=C\CCc2ccccc2)c1
inactive	O=P(O)(O)C(F)(F)c1cccc(/C=C\Cl)c1
inactive	CC(C)=C/C=C\c1cccc(C(F)(F)P(=O)(O)O)c1
inactive	CN(C)C/C=C\c1cccc(C(F)(F)P(=O)(O)O)c1

Molecular target: T1, Tyrosine-protein phosphatase non-receptor type 1
Assay: Binding affinity towards protein-tyrosine phosphatase 1B (PTP1B)

Ki	SMILES
8 mM	C=CCOC(=O)/C=C\c1cccc(C(F)(F)P(=O)(O)O)c1

Molecular target: T2, Tyrosine-protein phosphatase non-receptor type 1 (Homo sapiens)
Assay: Compound was evaluated for its percent Inhibition of protein-tyrosine phosphatase 1B (PTP1B) at the concentration of 50 uM; Showed little or no inhibition

SMILES	inhibition
O=P(O)(O)C(F)(F)c1cccc(/C=C\c2ccc(F)cc2)c1	inactive
O=P(O)(O)C(F)(F)c1cccc(/C=C\c2ccccc2)c1	inactive
O=[N+]([O-])c1ccc(/C=C\c2cccc(C(F)(F)P(=O)(O)O)c2)cc1	inactive
Cc1ccc(/C=C\c2cccc(C(F)(F)P(=O)(O)O)c2)cc1	inactive
O=P(O)(O)C(F)(F)c1cccc(/C=C\c2ccc(Cl)cc2)c1	inactive

More lines, now with the values ahead:

inhibition	SMILES
inactive	CCOc1ccc(/C=C\c2cccc(C(F)(F)P(=O)(O)O)c2)cc1
inactive	O=P(O)(O)C(F)(F)c1cccc(/C=C\c2ccc(Br)cc2)c1
inactive	Cc1ccccc1/C=C\c1cccc(C(F)(F)P(=O)(O)O)c1

Molecular target: T1, Tyrosine-protein phosphatase non-receptor type 1
Assay: Inhibitory concentration against Protein-tyrosine phosphatase 1B (PTP1B)

IC50	SMILES
12.2 mM	C=CCOC(=O)/C=C\c1cccc(C(F)(F)P(=O)(O)O)c1
